Source: patent US6509337B1, “Arylsulfonyl Hydroxamic Acid derivatives as MMP and TNF inhibitors” (Pfizer Inc., priority 1997, dated 2003)

Q: Which melting point does the source give for `COc1ccc(S(=O)(=O)N2CC=CC(c3ccccc3)C2C(=O)NO)cc1` (stereo not shown) [Example 2, N-hydroxy-1-(4-methoxybenzenesulfonyl)-3-phenyl-1,2,3,6-tetrahydropyridine-2-carboxamide] here?
A: 151 to 154 °C (dec.)
